Data from patent US20060147479A1, “Angiogenic medical cyanoacrylate adhesive” (priority 2002, published 2006).

What was measured:
[1] = system: angiogenesis; settings: cited from earlier work
[2] = Bond strength of tributyrin/cyanoacrylate blend on costal cartilage (Nene MC3000); format: physicochemical; settings: 5% to 50% (w/w) tributyrin in cyanoacrylate; held 1 minute, cured an additional hour in aqueous conditions
Description: 0.5 g of the sterile tributyrin was added to cyanoacrylate (9.5 g) to produce a 5% (w/w) blend in a sterile plastic universal tube. This was mixed for 2 minutes to ensure a homogenous blend. 40 μl aliquots of the blended adhesive were applied to freshly cut surfaces of costal cartilage. The two surfaces were held together for 1 minute allowing fixation and curing was allowed to continue for an additional hour in aqueous conditions. The bond strength was tested using a Nene MC3000 machine, where the applied force required to separate the bonded pieces of cartilage was recorded.

[3] = Release of tributyrin from cured blended adhesive disks into water, gas chromatography; format: physicochemical; settings: 5% w/w tributyrin cyanoacrylate sample; 2 ml water, 50° C., 1, 5 or 7 days with continuous agitation
Description: 0.5g of the sterile tributyrin was added to cyanoacrylate (9.5 g) to produce a 5% (w/w) blend in a sterile plastic universal tube. This was mixed for 2 minutes to ensure a homogenous blend. Small disks of the blended adhesive were cast onto a basic solution (dilute triethylamine 0.1% aq). The disks were removed, washed briefly and dried. The disks were then placed into 2 ml water and stored at 50° C. for 1, 5 or 7 days with continuous agitation. The water was removed then added to 2 mls dichloromethane in order to extract any released tributyrin. The dichloromethane layer was analysed using gas chromatography and the amount of tributyrin recorded. The disks were dried and then placed into fresh water at 50° C. for an additional day. The amount of tributyrin released into the fresh water was measured as described for the first samples.

[4] = Premature curing of cyanoacrylate by angiogenic agent; format: physicochemical; settings: in combination with cyanoacrylate

SMILES	local release sufficient to achieve the desired angiogenic effect [1]	adhesive property (bond strength; applied force required to separate the bonded pieces of cartilage) [2]	tributyrin released from cured adhesive disks [3]	premature cure of cyanoacrylate [4]
CCCC(=O)O [butyric acid, butanoic acid]	10 to 1000 ng	–	–	–
CCCC(=O)OCC(COC(=O)CCC)OC(=O)CCC [tributyrin, glcerol tributyrate; 1,2,3-(propyl)tributanoate]	–	without an unacceptable loss of adhesive property	released from a 5% w/w tributyrin cyanoacrylate sample over a 7 day period	do not cause cyanoacrylate to prematurely cure
